Blank lines part the entries; values can stand above or below the sequence they belong to.
Target: T1, MyD88^TIR (Homo sapiens, UniProt Q99836)
T1 construct: MyD88 (residues 148–296); 6xHis; made in house; host or cells: E. coli BL21 (DE3)
Assay: T‐Surf phage library (P8 and P3) selection against MyD88^TIR, four rounds, NGS read counts
Type: binding
Settings: for P3_MyD88 Rank (after) / P3_MyD88 Rank (before): P3 library; for P8_MyD88 Rank (after) / P8_MyD88 Rank (before): P8 library
Protocol: T‐Surf libraries were screened against the immobilized TIR domains of two major human TLR adaptor proteins, MAL^TIR and MyD88^TIR, allowing cross‐species selection of TIR‐binding motifs with 190 946 TIR‐derived peptides in a single binding assay (Scheme 1). Enriched phage pools from the fourth round of selection were analyzed using NGS after barcoding the peptide‐coding regions of the phage pools.
Phage display screening was performed by coating two wells of a 96‐well plate (Maxisorp, Thermo Fisher Scientific) with 100 µL of 5 µg mL^−1 TIR domains overnight; then, the coated wells were blocked with 200 µL of blocking buffer (0.2% BSA in PBS) and set aside for 1 h at 4 °C with gentle shaking. Next, 100 µL of the phage library was added to the wells and incubated for 1 h at room temperature (RT; 20 – 22 °C) with gentle shaking. The plate was washed four times with PBS containing 0.5% Tween‐20; the bound phages were eluted by adding 100 µL of 100 mM HCl to each well. The elute was neutralized with 10 µL of 1.0 M Tris‐HCl (pH 11.0). E. coli TG1 cells were grown to the log phase (A600 = ≈0.6), and 1 mL of the culture was incubated with 100 µL of the eluted phages for 30 min at 37 °C, with shaking at 200 rpm. Next, 1 µL of M13KO7 helper phages was added, followed by incubation for 45 min at 37 °C, with shaking. Subsequently, the cells were transferred to 25 mL of 2× yeast extract tryptone/carbenicillin/kanamycin medium and incubated overnight at 37 °C with shaking at 200 rpm. The amplified phages were precipitated with 20% PEG‐8000/2.5 M NaCl to be used for the next round of selection.
The naïve T‐Surf libraries in P8 and P3 and the enriched phage pools after four rounds were barcoded for NGS as previously described.^[ [59] ^] Briefly, 5 µL of the phage pool was used as a template for 20 cycles of a 50 µL PCR reaction using […] each of forward and reverse barcoded primers and PrimeSTAR Max DNA Polymerase. The PCR products were purified using Expin Gel SV (GeneAll). The NGS samples were quantified using qPCR, following the qPCR Quantification Protocol Guide (KAPA Library Quantification kits for Illumina Sequencing Platform), and qualified using the TapeStation High Sensitivity D1000 ScreenTape (Agilent Technologies). The indexed libraries were further sequenced by Macrogen (Seoul, Republic of Korea) using the NovaSeq platform (Illumina) with 100 bp paired‐end reads. The reads were demultiplexed by barcodes and filtered for an average Phred quality score of at least 30, followed by trimming the flanking consensus sequences using Cutadapt (version 2.3). Peptide sequence populations were analyzed according to the read counts.

[1] = selection against MyD88, rank by count after grouping
[2] = selection against MyD88, rank by count before grouping
[3] = P8_MyD88: rank by NGS read count after grouping
[4] = P8_MyD88: rank by NGS read count before grouping
[5] = 4R selection against MyD88, rank after grouping
[6] = 4R selection against MyD88, rank before grouping
[7] = selection against MyD88, rank after grouping
[8] = selection against MyD88, rank before grouping
[9] = P3_MyD88: rank by count after grouping
[10] = P3_MyD88: rank by count before grouping
[11] = P8_MyD88: rank by count after grouping
[12] = P8_MyD88: rank by count before grouping
[13] = selection against MyD88 TIR, rank by count after grouping
[14] = selection against MyD88 TIR, rank by count before grouping

T1 sequence (Q99836 148-296): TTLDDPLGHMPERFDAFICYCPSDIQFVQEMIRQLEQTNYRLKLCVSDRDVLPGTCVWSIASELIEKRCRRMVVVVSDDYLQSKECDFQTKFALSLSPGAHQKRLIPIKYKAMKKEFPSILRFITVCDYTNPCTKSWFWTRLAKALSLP

P3_MyD88 Rank (after) [1]: 731
P3_MyD88 Rank (before) [2]: 2715
Sequence: PEKDNGGENAFINTL

Rank (after) [3]: 971
Rank (before) [4]: 2627
Sequence: DPPELDWFYERLFSLF

P8_MyD88 Rank (after) [1]: 693
P8_MyD88 Rank (before) [2]: 1380
Sequence: WLLDQLDKILEAHGTT

P8_MyD88 Rank (after) [5]: 632
P8_MyD88 Rank (before) [6]: 1453
Sequence: WALDELLQILHARELLQIA

P8_MyD88 Rank (after) [7]: 538
P8_MyD88 Rank (before) [8]: 3327
Sequence: LGYQWNEWEYLVGIEE

Rank (after) [9]: 451
Rank (before) [10]: 1996
Sequence: DHHLDLPRGKSFKPEILG

Rank (after) [11]: 182
Rank (before) [12]: 216
Sequence: DVLYYALIDAGIRVFR

P3_MyD88 Rank (after) [13]: 263
P3_MyD88 Rank (before) [14]: 1105
Sequence: RISAFHQQLVMALKERLP

P3_MyD88 Rank (after) [1]: 677
P3_MyD88 Rank (before) [2]: 1653
Sequence: YTALTNMSFHTFRDNY

P3_MyD88 Rank (after) [1]: 744
P3_MyD88 Rank (before) [2]: 1964
Sequence: ARFKDMIINKWRTALKERLP

Rank (after) [9]: 431
Rank (before) [10]: 2695
Sequence: RSFRKGLWRLLELSNK

Rank (after) [11]: 410
Rank (before) [12]: 2717
Sequence: DPQDLVWYYERLVSLF

P8_MyD88 Rank (after) [5]: 585
P8_MyD88 Rank (before) [6]: 3020
Sequence: DPQEQVGICVRLMEAL

P8_MyD88 Rank (after) [13]: 205
P8_MyD88 Rank (before) [14]: 304
Sequence: AHDELWVLRYLLPTLE

Rank (after) [11]: 394
Rank (before) [12]: 2672
Sequence: DPQGRDWFYERLVSLF

P8_MyD88 Rank (after) [7]: 521
P8_MyD88 Rank (before) [8]: 1754
Sequence: YAASPRWLDDLVNIVG

Rank (after) [3]: 955
Rank (before) [4]: 3056
Sequence: DIADEDLPYLIRLLYSL

Rank (after) [3]: 953
Rank (before) [4]: 1659
Sequence: SQRADCSWEWQKMLYP

Population (P3_MyD88 pool: P3 T-Surf phage library, 4th round of selection against MyD88 TIR, share of NGS reads): 0.0032%
Sequence: SSFREGLWRLLELCKK

P8_MyD88 Rank (after) [1]: 724
P8_MyD88 Rank (before) [2]: 1346
Sequence: CALDELLHILHARELF

P8_MyD88 Rank (after) [5]: 659
P8_MyD88 Rank (before) [6]: 3211
Sequence: LVYHWIDWVYFVGIED

P3_MyD88 Rank (after) [7]: 486
P3_MyD88 Rank (before) [8]: 1491
Sequence: YAFTGHLRKQSGEFG

P3_MyD88 Rank (after) [13]: 240
P3_MyD88 Rank (before) [14]: 917
Sequence: GEDTRYTFTGHLHRYLVQRGV

P3_MyD88 Rank (after) [7]: 501
P3_MyD88 Rank (before) [8]: 3264
Sequence: SSWREGLCRLLELRNK

P8_MyD88 Rank (after) [7]: 517
P8_MyD88 Rank (before) [8]: 3491
Sequence: PQDQEWFYERMVSLIL

P8_MyD88 Rank (after) [7]: 530
P8_MyD88 Rank (before) [8]: 2783
Sequence: DPQDLDWFYERLEPV

P3_MyD88 Rank (after) [7]: 488
P3_MyD88 Rank (before) [8]: 2753
Sequence: PSEVRKQTGSLAKALCD

P8_MyD88 Rank (after) [1]: 722
P8_MyD88 Rank (before) [2]: 2169
Sequence: VANILGYHCIDWEHFVGIED

P3_MyD88 Rank (after) [7]: 515
P3_MyD88 Rank (before) [8]: 1343
Sequence: FLSYLALEKRFSPIGQ

P8_MyD88 Rank (after) [1]: 707
P8_MyD88 Rank (before) [2]: 2481
Sequence: DWGWGYLLPNLEGPAG

Rank (after) [3]: 894
Rank (before) [4]: 3219
Sequence: LGYDWIVWAYFVGIED

P8_MyD88 Rank (after) [7]: 545
P8_MyD88 Rank (before) [8]: 3073
Sequence: DRVWDYLLPNLEGQAG

P8_MyD88 Rank (after) [5]: 672
P8_MyD88 Rank (before) [6]: 2318
Sequence: AWVGDYLLPNLEGPAG

Rank (after) [9]: 171
Rank (before) [10]: 1662
Sequence: YTALTNSGFPTFRDHD

Rank (after) [9]: 401
Rank (before) [10]: 2092
Sequence: DTILEKVQSIAPELLR

Rank (after) [11]: 187
Rank (before) [12]: 270
Sequence: NDSLFWDRLLYSLHVTE

Rank (after) [9]: 164
Rank (before) [10]: 3465
Sequence: NQCRNFLTAAANLSGW

P3_MyD88 Rank (after) [13]: 219
P3_MyD88 Rank (before) [14]: 1696
Sequence: YTALTNSSFHTFLDND

Rank (after) [3]: 916
Rank (before) [4]: 2845
Sequence: DPQDLECFYERRVSLF

P8_MyD88 Rank (after) [13]: 222
P8_MyD88 Rank (before) [14]: 518
Sequence: WALDELLKILYARELF

P8_MyD88 Rank (after) [7]: 552
P8_MyD88 Rank (before) [8]: 2816
Sequence: DPQDLDWLYERPVSQF

From publication PMC11714206, “Massively Parallel Screening of Toll/Interleukin‐1 Receptor (TIR)‐Derived Peptides Reveals Multiple Toll‐Like Receptors (TLRs)‐Targeting Immunomodulatory Peptides” (Advanced Science, 2024)
